A word on the efflux ratio: it is the permeability from basolateral to apical divided by that in the opposite direction, in the common usage.

This data set relates to Caco-2 bidirectional permeability, LC-MS/MS efflux ratio. In words: Inhibitors of HPGD: Efflux Ratio Profiling. The conditions noted are these: hits give low values. The source says:
Human 15-Hydroxyprostaglandin dehydrogenase (HPGD) catalyzes the inactivation of prostaglandin E2, and plays a major role in cancer biology by antagonizing the oncogenic potential of cyclooxygenase type 2 (COX2). Assays are available, based on absorbance/fluorescence increase of NADH with the substrate 15-OH prostaglandin E2. This bioassays provides profiling data on Caco-2 cell permeability of leads compounds developed for the HPGD project. This in vitro model is often predictive of in vivo efflux of the compound by measuring the ratio of transport in and out the plasma membrane of the Caco2-cell line. NIH Chemical Genomics Center [NCGC] Structural Genomics Consortium [SGC]
1. Buffer Preparation: Prepare 1M HEPES: add 23.83g HEPES to 100ml of 0.85% NaCl Prepare HBSS+ buffer: add 12.8ml of 1M HEPES in 0.85% NaCl to 500ml HBSS buffer. 2. Take out the compounds from -80 degrees C, ultrasonicate or pre-warm for a few minutes to thaw the compounds. 3. Solution preparation Prepare donor buffer: For A-to-B direction: HBSS buffer with 0.3% DMSO and 5uM Lucifer Yellow (LY): add 150 µl DMSO and 50 µl LY (5mM) into 50ml HBSS buffer (pH 7.4). HBSS buffer with 0.1% DMSO and 5 µM Lucifer Yellow (LY): add 50 µl DMSO and 50 µl LY (5mM) into 50ml HBSS buffer (pH 7.4). […] The T0, LY and T90, LY plates are read by FlexStation 3 at excitation of 485 nm and emission of 535 nm to determine LY permeability. […]

As for `Cc1cc(-c2nnc3n2CCCCC3)c(C)n1-c1ccccc1`, the efflux ratio was 21.

Regarding `Cc1cccc(-n2cnc3cc(C(=O)N4CCCCC4)ccc32)c1`, the efflux ratio was 15.

The record behind these values is PubChem BioAssay AID504587 (National Center for Advancing Translational Sciences (NCATS), 2011).
